Measured values published in patent US10654845B2, “2-(het)aryl-substituted fused bicyclic heterocycle derivatives as pesticides” (BAYER CROPSCIENCE AKTIENGESELLSCHAFT, priority 2015, dated 2020).
Where two headings read alike, the source gives them in different places.

Assays:
[1] = log P by HPLC on reversed-phase column (C18), EEC Directive 79/831 Annex V.A8
Text: Called log P (HCOOH) in the table.
Called log P (neutral) in the table.

Phaedon cochleariae = Phaedon cochleariae spray test; type: in vivo; settings: for pest or weed control at 500 g/ha: Phaedon cochleariae, 168 h, read-out: efficacy in %
Experimental: Phaedon cochleariae-Spray Test
(§1) Solvent: 78.0 parts by weight of acetone
(§2) • 1.5 parts by weight of dimethylformamide Emulsifier: alkylaryl polyglycol ether
(§3) To produce a suitable preparation of active compound, 1 part by weight of active compound is dissolved using the stated parts by weight of solvent and made up with water containing an emulsifier concentration of 1000 ppm until the desired concentration is attained. To produce further test concentrations, the preparation is diluted with emulsifier-containing water.
After 7 days, the efficacy in % is determined. 100% means that all the beetle larvae have been killed; 0% means that no beetle larvae have been killed.

Myzus persicae = Myzus persicae spray test (Chinese cabbage leaf discs); type: in vivo
Experimental: Myzus persicae Spray Test
Solvent: 78 parts by weight of acetone
as §2, §3
Discs of Chinese cabbage leaves (Brassica pekinensis) infested by all stages of the green peach aphid (Myzus persicae) are sprayed with an active compound preparation of the desired concentration.
After 6 days, the efficacy in % is determined. 100% means that all the aphids have been killed; 0% means that no aphids have been killed.

Tetranychus urticae = Tetranychus urticae spray test, OP-resistant; type: in vivo; settings: after 6 days, spider mites killed
Experimental: Tetranychus urticae-Spray Test, OP-Resistant
as §1, §2, §3
Discs of bean leaves (Phaseolus vulgaris) infested with all stages of the greenhouse red spider mite (Tetranychus urticae) are sprayed with an active compound preparation of the desired concentration.
After 6 days, the efficacy in % is determined. 100% means that all the spider mites have been killed; 0% means that no spider mites have been killed.

Spodoptera frugiperda = Spodoptera frugiperda spray test; type: in vivo; settings: 500 g/ha, after 7 days, caterpillars killed
Experimental: Spodoptera frugiperda-Spray Test Solvent: 78.0 parts by weight of acetone • • 1.5 parts by weight of dimethylformamide Emulsifier: alkylaryl polyglycol ether […] To produce further test concentrations, the preparation is diluted with emulsifier-containing water. Leaf disks of maize (Zea mays) are sprayed with an active compound preparation of the desired concentration and, after drying, populated with caterpillars of the armyworm (Spodoptera frugiperda).

[2] = 500 g/ha, after 7 days, beetle larvae killed
[3] = 500 g/ha, after 6 days, aphids killed
[4] = LC-MS acidic range, pH 2.7 (HCOOH), C18, 55° C.
[5] = LC-MS neutral range, pH 7.8, C18, 55° C.

| Compound | logP-acidic ([1]; pH 2.7) | logP-neutral ([1]; pH 7.8) | efficacy in % (Phaedon cochleariae; [2]) [%] | efficacy in % (Myzus persicae; [3]) [%] | also measured |
| --- | --- | --- | --- | --- | --- |
| CCS(=O)(=O)c1ccc(NC(=O)CSC)nc1-c1nc2cc(C(F)(F)F)ncc2n1C [Example 53] | 2.51 | 2.38 | 100 | 90 | – |
| CCS(=O)(=O)c1ccc(NN)nc1-c1nc2cc(C(F)(F)F)ncc2n1C [Example 55] | – | – | 100 | 100 | logP-acidic [1, 4]: 1.39 |
| CCS(=O)(=O)c1ccc(NC(=O)C(C)C[S+](C)[O-])nc1-c1nc2cc(C(F)(F)F)ncc2n1C (centres unmarked) [Example 57] | 1.81 | – | 100 | 90 | – |
| CCS(=O)(=O)c1ccc(NS(=O)(=O)C(F)(F)F)nc1-c1nc2cc(C(F)(F)F)ncc2n1C [Example 58] | 2.37 | 1.20 | – | – | efficacy in % (Tetranychus urticae; 500 g/ha): 90% |
| CCS(=O)(=O)c1ccc(N(C)NC)nc1-c1nc2cc(C(F)(F)F)ncc2n1C [Example 60, 1-[5-Ethylsulphonyl-6-[3-methyl-6-(trifluoromethyl)imidazo[4,5-c]pyridin-2-yl]-2-pyridyl]-1,2-dimethylhydrazine] | – | – | – | – | chromatographic logP ([1]; pH 2.7): 2.37; chromatographic logP ([1]; pH 7.8): 2.39; pest or weed control at 500 g/ha (Phaedon cochleariae; [2]): 100%; pest or weed control at 100 g/ha (Myzus persicae; Myzus persicae, foliar, 144 h, 100 g/ha, after 6 days, aphids killed, read-out: efficacy in %): 90%; efficacy in % (Tetranychus urticae; 100 g/ha): 90% |
| CCS(=O)(=O)c1ccc(NC(=O)C(C)CS(C)(=O)=O)nc1-c1nc2cc(C(F)(F)F)ncc2n1C (centres unmarked) [Example 61] | 2.02 | – | 100 | 100 | – |
| CCS(=O)(=O)c1ccc(NC(C)=S)nc1-c1nc2cc(C(F)(F)F)ncc2n1C [Example 63, N-[5-Ethylsulphonyl-6-[3-methyl-6-(trifluoromethyl)imidazo[4,5-c]pyridin-2-yl]-2-pyridyl]thioacetamide] | – | – | – | – | chromatographic logP ([1]; pH 2.7): 2.6; chromatographic logP ([1]; pH 7.8): 2.41; pest or weed control at 500 g/ha (Phaedon cochleariae): 100%; pest or weed control at 500 g/ha (Myzus persicae; Myzus persicae, foliar, 144 h, read-out: efficacy in %): 90% |
| CCS(=O)(=O)c1ccc(N(C)C)nc1-c1nc2cc(C(F)(F)F)ncc2n1C [Example 64] | – | – | 100 | 90 | logP-acidic [1, 4]: 2.55; logP-neutral [1, 5]: 2.49; efficacy in % (Spodoptera frugiperda): 100% |
| CCS(=O)(=O)c1ccc(NC(=O)c2cscn2)nc1-c1nc2cc(C(F)(F)F)ncc2n1C [Example 66] | 2.60 | 2.58 | 100 | – | efficacy in % (Myzus persicae; 100 g/ha, after 6 days, aphids killed): 90% |
| CCS(=O)(=O)c1ccc(N)nc1-c1nc2cc(C(F)(F)C(F)(F)F)ncc2n1C [Example 67] | 2.14 | 2.14 | 100 | 90 | efficacy in % (Spodoptera frugiperda): 100%; efficacy in % (Tetranychus urticae; 500 g/ha): 100% |
| CCS(=O)(=O)c1ccc(N(C)C(C)=O)nc1-c1nc2cc(C(F)(F)F)ncc2n1C [Example 69] | – | – | 100 | 90 | logP-acidic [1, 4]: 2.11; logP-neutral [1, 5]: 2.10 |
| CCS(=O)(=O)c1ccc(NC(=O)C[S+](C)[O-])nc1-c1nc2cc(C(F)(F)F)ncc2n1C (centres unmarked) [Example 70] | 1.63 | 1.68 | 100 | 100 | – |
| CCS(=O)(=O)c1ccc(NC(=O)CS(C)(=O)=O)nc1-c1nc2cc(C(F)(F)F)ncc2n1C [Example 72] | 1.87 | 1.92 | 100 | 100 | – |
| CCS(=O)(=O)c1ccc(N(C)N)nc1-c1nc2cc(C(F)(F)F)ncc2n1C [Example 74] | – | – | 100 | 90 | logP-acidic [1, 4]: 1.96; efficacy in % (Tetranychus urticae; 500 g/ha): 90% |
